This note sets out measurements from US10662229B2, “Spider venom peptides and methods of use for modulating sodium channels” (priority 2016, dated 2020).

A word on the IC50: it is the concentration that gives 50% inhibition. Low values mean higher potency, high ones lower potency.

Common to all, as to assay type: cell-based
One assay concerns the target T1, hNav1.7 (Homo sapiens, UniProt Q15858).
T1 construct: host or cells: HEK293
In words: FLIPR membrane potential assay, hNav1.7. Particulars: for Selectivity for Nav1.7, Nav subtype 1.7: membrane potential assay, reference subtype. Summed up:
(§1)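 Stable HEK293 lines, one per hNav isoform; red membrane potential dye, 30 min, 37° C; FLIPR^TETRA read at 1 s intervals over 300 s post-agonist.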

The target in the next assay is T2, hNav1.5 (Homo sapiens, UniProt Q14524).
T2 construct: host or cells: HEK293
Kind of assay: FLIPR membrane potential assay, hNav1.5. Particulars: for Selectivity for Nav1.7, Nav subtype 1.5: membrane potential assay. In a few lines: as §1

The target in the next assay is T3, hNav1.3 (Homo sapiens, UniProt Q9NY46).
T3 construct: host or cells: HEK293
In words: FLIPR membrane potential assay, hNav1.3. Conditions: for Selectivity for Nav1.7, Nav subtype 1.3: membrane potential assay. In a few lines: as §1

In the next assay the target is T4, hNav1.1 (Homo sapiens, UniProt P35498).
T4 construct: host or cells: HEK293
Kind of assay: FLIPR membrane potential assay, hNav1.1. Conditions: for Selectivity for Nav1.7, Nav subtype 1.1: membrane potential assay. In a few lines:
as §1

A further assay addresses T5, hNav1.4 (Homo sapiens, UniProt P35499).
T5 construct: host or cells: HEK293
Kind of assay: FLIPR membrane potential assay, hNav1.4. Particulars: for Selectivity for Nav1.7, Nav subtype 1.4: membrane potential assay. Summed up:
as §1

In a further assay the target is T6, hNav1.8 (Homo sapiens, UniProt Q9Y5Y9).
T6 construct: host or cells: HEK293
Kind of assay: FLIPR membrane potential assay, hNav1.8. Particulars: for Selectivity for Nav1.7, Nav subtype 1.8: membrane potential assay. In a few lines:
as §1

The next assay deals with T7, hNav1.6 (Homo sapiens, UniProt Q9UQD0).
T7 construct: host or cells: HEK293
In words: FLIPR membrane potential assay, hNav1.6. Particulars: for Selectivity for Nav1.7, Nav subtype 1.6: membrane potential assay. Summed up:
as §1

The target of another assay is T8, hNav1.2 (Homo sapiens, UniProt Q99250).
T8 construct: host or cells: HEK293
Kind of assay: FLIPR membrane potential assay, hNav1.2. Particulars: for Selectivity for Nav1.7, Nav subtype 1.2: membrane potential assay. Summed up:
as §1

Where a SMILES comes first, the peptide text is derived from it. Bridges are numbered along the chain shown (N, C = ends). [ ]: non-standard residue; d: D form. Nle = CCCC[C@H](N)C(=O)O

T2 sequence (Q14524 whole entry): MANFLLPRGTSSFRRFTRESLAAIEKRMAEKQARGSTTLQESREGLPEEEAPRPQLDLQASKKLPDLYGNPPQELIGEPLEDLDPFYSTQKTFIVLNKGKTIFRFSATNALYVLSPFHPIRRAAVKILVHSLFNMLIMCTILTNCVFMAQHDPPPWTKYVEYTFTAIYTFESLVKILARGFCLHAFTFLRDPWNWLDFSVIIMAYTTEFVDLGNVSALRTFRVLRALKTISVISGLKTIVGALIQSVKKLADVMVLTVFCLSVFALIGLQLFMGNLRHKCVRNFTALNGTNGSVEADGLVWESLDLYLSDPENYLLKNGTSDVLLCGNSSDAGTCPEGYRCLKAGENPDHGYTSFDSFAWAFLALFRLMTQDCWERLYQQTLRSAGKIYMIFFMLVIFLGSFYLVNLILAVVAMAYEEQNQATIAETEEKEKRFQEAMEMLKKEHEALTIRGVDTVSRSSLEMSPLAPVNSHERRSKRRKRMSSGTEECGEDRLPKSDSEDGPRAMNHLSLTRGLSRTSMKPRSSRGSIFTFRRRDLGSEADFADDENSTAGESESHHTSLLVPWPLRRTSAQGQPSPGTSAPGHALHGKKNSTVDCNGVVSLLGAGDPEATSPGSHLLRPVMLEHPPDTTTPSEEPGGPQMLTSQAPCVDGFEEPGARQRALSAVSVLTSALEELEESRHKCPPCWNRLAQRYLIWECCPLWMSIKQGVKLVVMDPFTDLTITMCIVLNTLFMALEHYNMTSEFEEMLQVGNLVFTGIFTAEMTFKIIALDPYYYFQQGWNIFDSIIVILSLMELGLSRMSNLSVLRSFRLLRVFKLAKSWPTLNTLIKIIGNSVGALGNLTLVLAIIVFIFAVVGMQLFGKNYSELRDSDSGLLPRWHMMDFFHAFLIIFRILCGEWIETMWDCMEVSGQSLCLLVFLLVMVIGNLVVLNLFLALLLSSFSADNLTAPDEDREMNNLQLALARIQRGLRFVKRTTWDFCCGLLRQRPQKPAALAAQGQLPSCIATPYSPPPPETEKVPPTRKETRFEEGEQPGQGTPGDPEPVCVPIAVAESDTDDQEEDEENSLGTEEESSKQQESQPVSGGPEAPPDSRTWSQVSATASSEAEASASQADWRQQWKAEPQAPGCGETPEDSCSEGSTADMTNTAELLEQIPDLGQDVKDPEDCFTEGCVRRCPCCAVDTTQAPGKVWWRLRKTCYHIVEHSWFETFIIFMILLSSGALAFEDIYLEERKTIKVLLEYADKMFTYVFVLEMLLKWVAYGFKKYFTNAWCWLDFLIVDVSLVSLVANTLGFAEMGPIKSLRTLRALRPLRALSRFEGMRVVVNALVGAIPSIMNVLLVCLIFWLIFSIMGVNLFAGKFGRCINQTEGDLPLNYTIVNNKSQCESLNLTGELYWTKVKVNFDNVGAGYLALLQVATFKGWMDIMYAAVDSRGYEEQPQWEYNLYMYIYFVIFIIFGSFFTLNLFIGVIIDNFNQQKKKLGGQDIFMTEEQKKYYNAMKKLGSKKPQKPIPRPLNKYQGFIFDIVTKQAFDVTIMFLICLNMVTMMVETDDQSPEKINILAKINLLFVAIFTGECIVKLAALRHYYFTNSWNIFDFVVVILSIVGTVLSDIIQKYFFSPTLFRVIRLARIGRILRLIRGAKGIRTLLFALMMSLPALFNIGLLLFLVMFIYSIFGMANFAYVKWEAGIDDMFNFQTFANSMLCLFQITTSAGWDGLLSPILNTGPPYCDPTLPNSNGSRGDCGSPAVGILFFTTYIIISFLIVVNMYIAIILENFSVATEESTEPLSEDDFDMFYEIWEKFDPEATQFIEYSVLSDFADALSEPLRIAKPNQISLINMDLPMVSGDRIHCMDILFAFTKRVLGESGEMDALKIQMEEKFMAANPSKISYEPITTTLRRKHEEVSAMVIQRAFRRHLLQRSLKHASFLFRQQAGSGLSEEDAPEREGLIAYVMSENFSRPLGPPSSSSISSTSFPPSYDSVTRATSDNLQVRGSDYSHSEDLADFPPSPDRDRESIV
T6 sequence (Q9Y5Y9 whole entry): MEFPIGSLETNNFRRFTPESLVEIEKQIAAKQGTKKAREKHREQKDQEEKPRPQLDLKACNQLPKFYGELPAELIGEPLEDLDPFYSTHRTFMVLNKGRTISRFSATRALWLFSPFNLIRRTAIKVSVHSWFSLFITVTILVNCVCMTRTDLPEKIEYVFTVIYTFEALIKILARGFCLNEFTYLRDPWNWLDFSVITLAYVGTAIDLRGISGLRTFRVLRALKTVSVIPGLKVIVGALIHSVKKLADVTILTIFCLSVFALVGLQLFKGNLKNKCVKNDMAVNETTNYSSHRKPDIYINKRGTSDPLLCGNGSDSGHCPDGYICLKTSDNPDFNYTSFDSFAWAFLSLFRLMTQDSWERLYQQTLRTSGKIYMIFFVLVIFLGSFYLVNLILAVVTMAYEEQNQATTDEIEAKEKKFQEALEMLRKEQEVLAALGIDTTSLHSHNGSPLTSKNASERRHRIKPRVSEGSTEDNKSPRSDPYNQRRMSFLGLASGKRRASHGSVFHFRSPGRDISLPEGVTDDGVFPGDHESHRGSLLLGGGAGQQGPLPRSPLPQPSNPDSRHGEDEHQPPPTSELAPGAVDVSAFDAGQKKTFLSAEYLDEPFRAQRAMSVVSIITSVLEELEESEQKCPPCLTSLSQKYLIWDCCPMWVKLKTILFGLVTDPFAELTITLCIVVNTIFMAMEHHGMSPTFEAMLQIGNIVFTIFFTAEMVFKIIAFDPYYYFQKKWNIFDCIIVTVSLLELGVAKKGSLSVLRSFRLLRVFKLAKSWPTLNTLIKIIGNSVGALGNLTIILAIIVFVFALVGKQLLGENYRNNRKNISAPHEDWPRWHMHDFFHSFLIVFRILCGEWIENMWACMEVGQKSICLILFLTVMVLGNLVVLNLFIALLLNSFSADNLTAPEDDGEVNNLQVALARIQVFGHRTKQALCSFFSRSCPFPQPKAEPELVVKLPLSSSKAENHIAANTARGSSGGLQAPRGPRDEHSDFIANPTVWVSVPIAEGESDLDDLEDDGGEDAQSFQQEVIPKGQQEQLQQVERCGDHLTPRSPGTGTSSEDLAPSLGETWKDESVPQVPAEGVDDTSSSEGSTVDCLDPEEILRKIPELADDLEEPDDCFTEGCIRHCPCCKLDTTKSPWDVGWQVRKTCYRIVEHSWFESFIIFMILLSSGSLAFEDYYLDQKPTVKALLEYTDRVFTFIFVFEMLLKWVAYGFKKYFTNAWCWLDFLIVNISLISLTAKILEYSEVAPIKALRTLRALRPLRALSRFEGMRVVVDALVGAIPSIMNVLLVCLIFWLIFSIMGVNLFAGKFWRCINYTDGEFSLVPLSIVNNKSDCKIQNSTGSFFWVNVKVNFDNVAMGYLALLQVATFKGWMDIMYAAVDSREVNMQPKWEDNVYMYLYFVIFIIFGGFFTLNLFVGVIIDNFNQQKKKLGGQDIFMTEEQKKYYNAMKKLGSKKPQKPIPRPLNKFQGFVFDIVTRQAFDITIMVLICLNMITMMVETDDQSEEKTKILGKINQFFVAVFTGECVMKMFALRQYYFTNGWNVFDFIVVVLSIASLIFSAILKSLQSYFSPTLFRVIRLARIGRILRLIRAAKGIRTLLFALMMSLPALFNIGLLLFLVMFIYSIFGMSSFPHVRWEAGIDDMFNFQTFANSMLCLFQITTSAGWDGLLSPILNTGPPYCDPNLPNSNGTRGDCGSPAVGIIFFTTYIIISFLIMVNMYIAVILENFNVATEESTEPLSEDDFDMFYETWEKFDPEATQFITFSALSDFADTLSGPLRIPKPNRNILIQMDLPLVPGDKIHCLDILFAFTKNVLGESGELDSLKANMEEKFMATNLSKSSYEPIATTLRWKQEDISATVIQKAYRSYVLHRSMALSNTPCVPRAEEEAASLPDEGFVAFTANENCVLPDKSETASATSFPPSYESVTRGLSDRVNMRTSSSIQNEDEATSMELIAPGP

Consider `CCCC[C@@H]1NC(=O)[C@H](Cc2ccc(O)cc2)NC(=O)[C@H](CCCNC(=N)N)NC(=O)[C@@H](NC(=O)[C@@H](N)CC(=O)O)CSSC[C@@H]2NC(=O)[C@@H]3CSSC[C@@H](C(=O)N[C@@H](C)C(=O)N[C@@H](Cc4c[nH]c5ccccc45)C(=O)N[C@@H](CC(=O)O)C(=O)N[C@@H](Cc4ccccc4)C(=O)N[C@H](C(=O)N[C@@H](Cc4ccccc4)C(=O)N[C@H](C(=O)O)[C@@H](C)O)[C@@H](C)O)NC(=O)[C@H](Cc4ccc(O)cc4)NC(=O)[C@H](CCCCN)NC(=O)[C@H](CCCC)NC(=O)[C@H](CCCCN)NC(=O)[C@H](CCCNC(=N)N)NC(=O)[C@H](CCCCN)NC(=O)[C@H](CSSC[C@H](NC(=O)[C@H](CC(=O)O)NC(=O)CNC(=O)[C@H](Cc4ccccc4)NC1=O)C(=O)N[C@@H](CCC(=O)O)C(=O)N[C@@H](CCCCN)C(=O)N[C@@H](CC(=O)O)C(=O)N[C@@H](CCC(=O)O)C(=O)N[C@@H](CC(=O)O)C(=O)N3)NC(=O)CNC(=O)[C@H](CC(C)C)NC(=O)[C@H](Cc1c[nH]cn1)NC(=O)[C@H](CCCCN)NC2=O` [[M5,25Nle]Pnc1a] (H-DCRY[Nle]FGDCEKDEDCCKHLGCKRK[Nle]KYCAWDFTFT-OH; disulfide 2-16, 9-21, 15-28), for which, at hNav1.7, half-maximal inhibition (IC50) required 0.116 µM and the “Selectivity for Nav1.7, Nav subtype 1.7” value is 1. On hNav1.5, the IC50 is over 30 µM and the “Selectivity for Nav1.7, Nav subtype 1.5” value was over 260. On hNav1.3, the IC50 came to 1 µM and the “Selectivity for Nav1.7, Nav subtype 1.3” value worked out at 10. Also, on hNav1.1, the half-inhibitory concentration (IC50) worked out at 2 µM and the “Selectivity for Nav1.7, Nav subtype 1.1” value stood at 17. Moreover, at hNav1.4, the IC50 was 3 µM and the “Selectivity for Nav1.7, Nav subtype 1.4” value is recorded as 22. At hNav1.8, the half-maximal inhibitory concentration (IC50) was over 30 µM and the “Selectivity for Nav1.7, Nav subtype 1.8” value is listed as over 260. For the same compound, on hNav1.6, half-maximal inhibition (IC50) required 5 µM and the “Selectivity for Nav1.7, Nav subtype 1.6” value is recorded as 41. Besides, at hNav1.2, the IC50 amounted to 0.773 µM and the “Selectivity for Nav1.7, Nav subtype 1.2” value was found to be 7.

With `CSCC[C@@H]1NC(=O)[C@H](Cc2ccc(O)cc2)NC(=O)[C@H](CCCNC(=N)N)NC(=O)[C@@H](NC(=O)[C@@H](N)CC(=O)O)CSSC[C@@H]2NC(=O)[C@@H]3CSSC[C@@H](C(=O)N[C@@H](C)C(=O)N[C@@H](Cc4c[nH]c5ccccc45)C(=O)N[C@@H](CC(=O)O)C(=O)N[C@@H](Cc4ccccc4)C(=O)N[C@H](C(=O)N[C@@H](Cc4ccccc4)C(=O)N[C@H](C(=O)O)[C@@H](C)O)[C@@H](C)O)NC(=O)[C@H](Cc4ccc(O)cc4)NC(=O)[C@H](CCCCN)NC(=O)[C@H](CCSC)NC(=O)[C@H](CCCCN)NC(=O)[C@H](CCCCN)NC(=O)[C@H](CCCCN)NC(=O)[C@H](CSSC[C@H](NC(=O)[C@H](CC(=O)O)NC(=O)CNC(=O)[C@H](Cc4ccccc4)NC1=O)C(=O)N[C@@H](CCC(=O)O)C(=O)N[C@@H](CCCCN)C(=O)N[C@@H](CC(=O)O)C(=O)N[C@@H](CCC(=O)O)C(=O)N[C@@H](CC(=O)O)C(=O)N3)NC(=O)CNC(=O)[C@H](CC(C)C)NC(=O)[C@H](Cc1c[nH]cn1)NC(=O)[C@H](CCCCN)NC2=O` [[R23K]Pnc1a] (H-DCRYMFGDCEKDEDCCKHLGCKKKMKYCAWDFTFT-OH; disulfide 2-16, 9-21, 15-28), on hNav1.7, the IC50 is 0.251 µM and the “Selectivity for Nav1.7, Nav subtype 1.7” value came to 1. Further, at hNav1.5, the concentration for half-maximal inhibition (IC50) is over 30 µM and the “Selectivity for Nav1.7, Nav subtype 1.5” value was over 120. At hNav1.3, the IC50 turned out to be 5 µM and the “Selectivity for Nav1.7, Nav subtype 1.3” value is on record as 19. Moreover, at hNav1.1, half-maximal inhibition (IC50) required 8 µM and the “Selectivity for Nav1.7, Nav subtype 1.1” value is listed as 33. On hNav1.4, the 50% inhibitory concentration (IC50) amounted to 10 µM and the “Selectivity for Nav1.7, Nav subtype 1.4” value was 40. In addition, at hNav1.8, the concentration for half-maximal inhibition (IC50) was over 30 µM and the “Selectivity for Nav1.7, Nav subtype 1.8” value is on record as over 120. Besides, at hNav1.6, the IC50 stood at 16 µM and the “Selectivity for Nav1.7, Nav subtype 1.6” value is on record as 63. Besides, at hNav1.2, the IC50 stood at 3 µM and the “Selectivity for Nav1.7, Nav subtype 1.2” value came out at 14.

In the case of `CSCC[C@@H]1NC(=O)[C@H](Cc2ccc(O)cc2)NC(=O)[C@H](CCCNC(=N)N)NC(=O)[C@@H](NC(=O)[C@@H](N)CC(=O)O)CSSC[C@@H]2NC(=O)[C@@H]3CSSC[C@@H](C(=O)N[C@@H](C)C(=O)N[C@@H](C)C(=O)N[C@@H](CC(=O)O)C(=O)N[C@@H](Cc4ccccc4)C(=O)N[C@H](C(=O)N[C@@H](Cc4ccccc4)C(=O)N[C@H](C(=O)O)[C@@H](C)O)[C@@H](C)O)NC(=O)[C@H](Cc4ccc(O)cc4)NC(=O)[C@H](CCCCN)NC(=O)[C@H](CCSC)NC(=O)[C@H](CCCCN)NC(=O)[C@H](CCCNC(=N)N)NC(=O)[C@H](CCCCN)NC(=O)[C@H](CSSC[C@H](NC(=O)[C@H](CC(=O)O)NC(=O)CNC(=O)[C@H](Cc4ccccc4)NC1=O)C(=O)N[C@@H](CCC(=O)O)C(=O)N[C@@H](CCCCN)C(=O)N[C@@H](CC(=O)O)C(=O)N[C@@H](CCC(=O)O)C(=O)N[C@@H](CC(=O)O)C(=O)N3)NC(=O)CNC(=O)[C@H](CC(C)C)NC(=O)[C@H](Cc1c[nH]cn1)NC(=O)[C@H](CCCCN)NC2=O` [[W30A]Pnc1a] (H-DCRYMFGDCEKDEDCCKHLGCKRKMKYCAADFTFT-OH; disulfide 2-16, 9-21, 15-28), at hNav1.7, inhibition was half-maximal at 7 µM (IC50) and the “Selectivity for Nav1.7, Nav subtype 1.7” value amounted to 1. In addition, at hNav1.5, the IC50 came to 6 µM and the “Selectivity for Nav1.7, Nav subtype 1.5” value was 0.9. At hNav1.3, inhibition was half-maximal at 11 µM (IC50) and the “Selectivity for Nav1.7, Nav subtype 1.3” value is given as 2. Besides, on hNav1.1, the IC50 came out at 15 µM and the “Selectivity for Nav1.7, Nav subtype 1.1” value amounted to 2. At hNav1.4, half-maximal inhibition (IC50) required 12 µM and the “Selectivity for Nav1.7, Nav subtype 1.4” value is 2. Moreover, on hNav1.8, the half-maximal inhibitory concentration (IC50) is over 30 µM and the “Selectivity for Nav1.7, Nav subtype 1.8” value came to 4. For the same compound, on hNav1.6, the concentration for half-maximal inhibition (IC50) is over 30 µM and the “Selectivity for Nav1.7, Nav subtype 1.6” value is 4. Further, on hNav1.2, the IC50 worked out at 24 µM and the “Selectivity for Nav1.7, Nav subtype 1.2” value amounted to 3.
